For this test, the system named is P. falciparum 3D7 growth, pLDH absorbance. Briefly: P. falciparum 3D7 growth inhibition, dose response, strain 3D7 (AID 2305).

By IC50 is commonly meant the midpoint of a concentration-inhibition curve. Lower therefore signals greater potency in that assay.

Compound `CS(=O)(=O)c1ccc(CNCc2ccc(-c3ccc(-c4nc5ccc(C(F)(F)F)cc5[nH]4)s3)cc2)cc1` had an IC50 of 160 nM. For `O=C(/C=C/c1ccccc1Cl)Nc1ccc(Br)c(OCCN2CCN(CCN3CCOCC3)CC2)c1` the value was 760 nM; for `COc1ccc(Cl)cc1N1CCN(CCCNC(=O)c2ccc(-c3nc4cc(Cl)c(F)cc4[nH]3)c(F)c2)CC1`, 1110 nM. To `Cc1ccc(C)c(NC(=O)Nc2ccc(C)c(-c3ccc(C(=O)Nc4ccncc4)cc3)c2)c1` belongs 620 nM; to `O=C(Nc1cccc(CN2CCCN(Cc3ccc(O)cc3)CC2)c1)c1ccc(Cl)c(Cl)c1`, 260 nM; to `O=C(NC1CCN(c2ccnc3ccccc23)C1)c1cccc(C(F)(F)F)c1` (stereo not drawn), 900 nM. `CCOC(=O)NC1=NC(C)(C)N(OCc2ccc(Cl)c(Cl)c2)C(NC(=O)OCC)=N1` registered an IC50 of 280 nM. In the case of `CC(C)C1=NCc2ccc([N+](=O)[O-])cc2C(=O)N1`, the IC50 turned out to be 150 nM. For `Nc1ccc(Nc2ccnc3ccc(C(F)(F)F)cc23)cc1O` the value was 720 nM. To `C[C@@H]1C[C@@H]([C@H](O)CC2CC(=O)NC(=O)C2)C(=O)[C@@H](C)C1` belongs 530 nM.

For `O=[N+]([O-])c1cccc(CNC2CCN(Cc3ccc4ccccc4c3)CC2)c1`, the IC50 was 760 nM.

For `CCCN(CCC)C(=O)c1cc(C(=O)N[C@@H](Cc2ccccc2)[C@H](O)CNCc2cccc(C(F)(F)F)c2)cc(N2CCCCS2(=O)=O)c1`, the IC50 worked out at 880 nM. The IC50 values of the last two compounds are within 1.5-fold of each other. As to `O=C(Nc1ccc(F)c(Cl)c1)NC1CCN(c2ccnc3cc(Cl)ccc23)C1` (stereo not drawn), the IC50 turned out to be 210 nM. For `CC(C)NC[C@@H](O)[C@H](Cc1ccccc1)NC(=O)c1cc2c3c(c1)c(C(C)C)cn3CCS(=O)(=O)N2C` the value was 180 nM; for `C#CCOc1ccc2ccccc2c1CNCCCCCCNCc1c(OCC#C)ccc2ccccc12`, 780 nM. To `Cc1cnc(Nc2cccnc2)nc1Nc1ccccc1C(=O)NC(C)C` belongs 1200 nM; to `O=c1ccc2ccc(F)cc2n1CCN1CCC(NCc2ccc(-c3ccccn3)s2)CC1`, 890 nM. In the case of `Cc1ccc(S(=O)(=O)n2nccc2-c2c(-c3ccc(Cl)cc3)noc2C)cc1`, the IC50 came to 810 nM. To `CS(=O)(=O)N(c1ccccc1)c1cc(C(=O)N[C@@H](Cc2ccccc2)[C@H](O)CNC2CCCCC2)cc(N2CCCC2=O)c1` belongs 80 nM. To `Clc1ccc(CNc2ccnc(NCc3cccnc3N3CCCC3)n2)c(Cl)c1` belongs 1170 nM. For `c1ccc2nc(NCCCCCCCCNc3ccc4ccccc4n3)ccc2c1` the value was 270 nM; for `OCCN1CCN(Cc2cccc(-c3ccc(-c4nc5ccc(C(F)(F)F)cc5[nH]4)cc3)c2)CC1`, 560 nM; for `NC(=O)COc1c(C2CCN(CCN3CCC(CNC(=O)c4ccc(-c5ccc(C(F)(F)F)cc5)cc4)CC3)CC2)ccc2c1CCCC2`, 970 nM.

In turn, `CN(C)c1ccc(C=C2SC(=Nc3ccccc3)N(c3ccccc3)C2=O)cc1[N+](=O)[O-]` showed an IC50 of 780 nM.

Turning to `COc1cc2c(cc1OCCN1CCC(N3CCCCC3)CC1)N(C(=O)/C=C/c1ccccc1OC(F)(F)F)CC2`, the IC50 was 590 nM. To `CCOc1ccc(-c2nonc2NC(=O)c2ccccc2OC)cc1OCC` belongs 240 nM; to `COc1cc2c(cc1S(=O)(=O)c1ccc(OCc3ccc(Cl)cc3)cc1)CCN(Cc1ccc(NC(C)=O)s1)CC2`, 920 nM. To `CCN(CC)CCN(Cc1ccc(-c2ccc(C(F)(F)F)cc2)cc1)C(=O)Cn1cc(Cc2cnn(C)c2)c(=O)nc1/C=C/c1cccc(F)c1F` belongs 960 nM; to `Cc1ccc(NC(=O)c2ccc(CN3CCCN(Cc4cccc(C#N)c4)CC3)cc2)cc1F`, 590 nM.

Turning to `Nc1nc(N)c2c(ccc3c2ccn3CCCF)n1`, the IC50 was found to be 150 nM. For `O=C(/C=C/c1ccc(Cl)c(Cl)c1)NCCCCCN1CCCC(CNC(=O)Nc2ccc(Oc3ccccc3)cc2)C1` (stereo not drawn) the value was 780 nM; for `COc1ccc2nccc([C@@H](O)CN3CCC(NCc4cc5ccccc5[nH]c4=O)CC3)c2c1`, 180 nM; for `O=S(=O)(NCCN1CCCC1)c1cccc(-c2cccc(CNCCc3cccs3)c2)c1`, 750 nM. To `Cc1ccc2cc(NC(=O)CCCCCCCON3C(N)=NC(N)=NC34CCCCC4)ccc2n1` belongs 90 nM; to `CC[C@H]1CN2CC[C@@H]1C[C@H]2[C@H](O)c1ccnc2ccc(Cl)cc12`, 120 nM. To `CC(C)(C)c1ccc(NC(=O)N[C@@H]2CCN(c3ccnc4ccccc34)C2)cc1` belongs 350 nM. As for `Nc1nccc2ccc(-c3cccc(O)c3)cc12`, the IC50 worked out at 640 nM. To `Oc1ccc(-c2ccccc2)cc1CNC1CCCCC1` belongs 500 nM. Consider `COc1ccc(CC(=O)NC(CCN2CCC3(CCc4ccccc43)CC2)c2ccc(Cl)c(Cl)c2)cc1` (stereo not drawn), for which the IC50 worked out at 530 nM. `COc1cc(-c2cc(-c3ccc(S(C)(=O)=O)cc3)cnc2N)ccc1O`: the IC50 is 100 nM. This IC50 lies about 5.3-fold lower than the previous one. For `Cc1ccc(C)c(C2CCN(CCCCNC(=O)c3ccc(NC(=O)c4ccc(Cl)cc4)cc3)CC2)c1` the value was 850 nM; for `Cc1cccc2[nH]c(-c3ccc(-c4ccc(CN5CCN(CCN6CCOCC6)CC5)cc4)s3)nc12`, 240 nM. For `CS(=O)(=O)c1ccc(CCNCc2ccc(-c3ccc(CNC4CCN(Cc5ccccc5)CC4)cc3)nc2)cc1` the value was 250 nM; for `CCCCN(Cc1cccc(C(F)(F)F)c1Cl)c1ccc(C(O)(C(F)(F)F)C(F)(F)F)cc1`, 960 nM; for `O=C(CCc1cnc[nH]1)Nc1cccc(-c2ccc(-c3nc4ccc(F)cc4[nH]3)cc2)c1`, 240 nM.

In turn, `Cn1c(N)c(C(=O)CSc2nnc(-c3cccs3)n2Cc2ccccc2)c(=O)n(C)c1=O` returned an IC50 of 790 nM.

As for `CN1C(=O)OC[C@@H]1Cc1ccc2[nH]cc(C3=CCN(Cc4ccccc4)CC3)c2c1`, the IC50 amounted to 420 nM.

`CCOC(=O)C(=O)N1c2ccc(OCC)cc2-c2c(ssc2=S)C1(C)C` came in with an IC50 of 220 nM.

As for `c1ccc(C2=NN=C(c3ccccn3)[C@H]3[C@H]4C[C@@H]([C@@H]23)[C@@H]2[C@H]4[C@H]3C[C@@H]2c2ccccc23)nc1`, the IC50 came out at 850 nM. Against the preceding compound, the IC50 is about 3.9-fold higher. For `CC(C)COc1ccc(Cl)cc1Cc1nc(-c2nc3ccc(CN4CCCCC4)cc3[nH]2)co1` the value was 740 nM; for `CN1CCN(c2cccc(-c3nnc(-c4cccc(OCC(=O)NCc5ccc(C(F)(F)F)cc5)c4)o3)c2)CC1`, 760 nM; for `COc1ccc2ncc(F)c([C@@H](O)CN3CCC(NCc4cc(C#N)c5c(c4)CCO5)CC3)c2n1`, 890 nM. To `Cc1ccc2nc(C)cc(NN=Cc3ccccc3[N+](=O)[O-])c2c1` belongs 170 nM; to `COc1ccc2nccc(NC(=O)CNCc3ccc(-c4ccccc4)cc3)c2c1`, 770 nM; to `COc1ccc(OCCCN2CCCCC2)cc1S(=O)(=O)c1ccc(OCc2ccc(C(F)(F)F)cc2)cc1`, 1010 nM. For `O=S(=O)(NCCN1CCCC1)c1cccc(-c2ccc(CNC3Cc4ccccc4C3)cc2)c1` the value was 660 nM; for `CN(C)CCN1CCN(Cc2ccc(-c3cccc(-c4nc5ccccc5[nH]4)c3)cc2)CC1`, 200 nM.

`COc1cccc(CN(C(=O)Nc2ccccc2F)[C@H]2C[C@H]3C(=O)Nc4cc(F)ccc4C(=O)N3C2)c1`: the IC50 was determined as 840 nM. For `COc1cc(CNCCCCCCNCc2cc(OC)c(OC)c3ccccc23)c2ccccc2c1OC` the value was 230 nM; for `Cc1ccccc1CCNC(=O)c1ccc(N2CCN(c3ccncc3)CC2)nc1`, 1390 nM; for `CC(NC(=O)c1cc(-c2ccccc2)nc2c1cnn2C(C)C)C1CC1` (stereo not drawn), 1280 nM. Compound `COc1ccc(Cn2c(Nc3cccc(C(F)(F)F)c3)nc3cc(C(=O)NC4CC4)cnc32)cc1Cl` displayed an IC50 of 730 nM. Compound `O=C(c1cc(C(=O)NCc2ccc(Cl)cc2)c(=O)n(Cc2ccc(Cl)cc2)c1)c1cc(F)ccc1O` returned an IC50 of 950 nM. For `CC(C)c1ccc(-c2nc3ncc(Cl)cc3[nH]2)cc1` the value was 860 nM. Compound `COc1ccc(CC2(CO)CCN(Cc3ccc(O)c(Cl)c3)CC2)cc1` had an IC50 of 860 nM. For `C[C@H](Cc1ccc(S(=O)(=O)c2ccc(C[C@@H](C)NC[C@H](O)c3cccc(Cl)c3)cc2)cc1)NC[C@H](O)c1cccc(Cl)c1` the value was 260 nM; for `Fc1cccc(COc2ccc(Nc3ncnc4sc(C#CCNC5CCCC5)cc34)cc2Cl)c1`, 780 nM; for `Cc1ncccc1C(=O)Nc1cccc(-c2cccc(-c3nc4c(C)cccc4[nH]3)c2)c1`, 960 nM. For `N#Cc1ccc(N2CCN(Cc3cccc(-c4ccc(-c5nc6ccc(C(F)(F)F)cc6[nH]5)cc4)c3)CC2)nc1` the value was 700 nM; for `O=C(N[C@@H](CC1CCCCC1)C(=O)NC1CCCCCC1)c1ccc(O)c(-c2ccc(Cl)c(Cl)c2)c1`, 100 nM. To `C=CC[C@@H](C(=O)OCC)[C@@H]1[C@@H](N(CC=C)C(=O)OC(C)(C)C)CCN1C(=O)OCc1ccccc1` belongs 960 nM; to `Cn1nc(-c2cccc(CNC3CCc4ccccc43)c2)c2cnc(NCCCN3CCCC3)nc21` (stereo not drawn), 880 nM; to `CC(C)(C)c1ccc(NC(=O)Nc2ccc(Cn3ncc(N4CCCNCC4)c(Cl)c3=O)cc2)cc1`, 750 nM. `c1cc(CNC2CCN(CC3CCCCC3)CC2)cc(-n2ccnc2)c1`: the IC50 was 650 nM. As for `CC(C)CNCc1ccc(-c2cccc(CN(CCCN3CCN(C)CC3)C(=O)/C=C/c3ccccc3)c2)cc1`, the IC50 was found to be 870 nM.

For the compound `Cc1ccccc1C1CCN(C2CCC(NC(=O)c3ccc4c(c3)-c3nocc3C(C)O4)CC2)CC1` (stereo not drawn), the IC50 worked out at 1270 nM. This IC50 and that of the compound before are within 1.5-fold of each other.

For `CC(=O)Nc1ncc(C(=O)Nc2cccc(-c3ccc(-c4nc5ccccc5[nH]4)cc3)c2)s1`, the IC50 was 670 nM.

Turning to `CN(c1cc(NC(=O)c2cccs2)ccn1)C1CCN(Cc2cccc(F)c2)CC1`, the IC50 is 680 nM. To `COc1cccc(Nc2nc(C)cc(NCc3ccc(-n4ccnc4)cc3)n2)c1` belongs 960 nM. To `Cc1nc2ccc(Nc3nccc(-c4c(-c5cccc(NC(=O)c6c(F)cccc6F)c5)nn5ccccc45)n3)cc2nc1C` belongs 1070 nM; to `CN1CC=C(c2c[nH]c3ccc(C(=O)c4nccs4)cc23)CC1`, 240 nM; to `COc1ccc(Cc2cnc3nc(N)nc(N)c3c2C)cc1`, 30 nM.

For `O=C(NC1CCCCC1)N(Cc1ccc(-c2ccc(CNCc3ccc4c(c3)OCO4)cc2)cc1)C1CCN(Cc2ccccc2)CC1`, the IC50 was 690 nM.

(Values after PubChem BioAssay AID2305 (GlaxoSmithKline (GSK), 2010).)
